Assay results published in patent US7253176B1, “Immunosuppressive effects of 8-substituted xanthine derivatives” (K.U. Leuven Research & Development, priority 2000, dated 2007).

Tests used:
Assay type in all cases: cell-based, human
[1] = test system: Peripheral blood mononuclear cells (PBMC); test: Mixed lymphocyte reaction (MLR), [3H]-thymidine incorporation
Excerpt: (§1) Various models may be used for testing an immunosuppressive effect. In vivo, for example, different transplantation models are available. They are strongly influenced by different immunogenicities, depending on the donor and recipient species used and depending on the nature of the transplanted organ. The survival time of transplanted organs can thus be used to measure the suppression of the immune response. In vitro, there exist also various models. The most used are lymphocyte activation tests. Usually activation is measured via lymphocyte proliferation. Inhibition of proliferation thus always means immunosuppression under the experimental conditions applied. There exist different stimuli for lymphocyte activation: • coculture of lymphocytes of […] (MLR=mixed lymphocyte reaction): lymphocytes expressing different minor and major antigens of the HLA-DR type (=allogens) activate each other non-specifically. • CD3 assay: here there is an activation of the T-lymphocytes via an exogenously added antibody (OKT3). This antibody reacts against the CD3 molecule located on the lymphocyte membrane. This molecule has a […]. […] This molecule is also located on the lymphocyte membrane, and delivers strong costimulatory signals. […] Reagents
Mixed Lymphocyte Reaction
Peripheral blood mononuclear cells (PBMC) were isolated from heparinized peripheral blood by density gradient centrifugation over Lymphoprep (Nycomed, Maorstua, Norway). Allogeneic PBMC or EBV-transformed human B cells [RPMI1788 (ATCC name CCL156)] which strongly express B7-1 and B7-2 were used as stimulator calls after irradiation with 30 Gy. MLR was performed in triplicate wells. After 5 days incubation at 37° C., 1 μCi [^3H]-thymidine was added to each cup. After a further 16 hours incubation, cells were harvested and counted in a β-counter.
The percent suppression of proliferation by drugs was counted using the formula: […]

Highly purified T cells [2] = test: T cell proliferation induced by anti-CD3 mAb+PMA (BrdU); conditions: for IC50: read-out: IC50 aCD3
Excerpt: T cells were purified by removing non-T cells. Briefly, monocytes were removed by cold agglutination. The resulting lymphoid cells were further purified by a cell enrichment immunocolumn [Cellect Human T (Biotex, Edmonton, Alberta, Canada)] by a process of negative selection.
(§2) Measurements of T Cell Proliferations Induced by Anti-CD3 mAB+PMA or Anti-CD28 mAb+PMA
(§3) Highly purified T cells (10^6/ml) were stimulated by immobilized anti-CD3 or anti-CD28 mAb in the presence of PMA. Anti-CD3 mAb (CLB-CD3; CLB, Amsterdam, The Netherlands) were fixed on the 96-microwell plates by incubating the wells with 50 μl of mAb solution […] 50 μl (1/650 dilution in culture medium) was added directly to the wells. Further, 20 μl PMA (Sigma, St. Louis, Mo., USA) solution (final concentration: 0.5 ng/ml) was added. Subsequently, 20 μl of immunosuppressants were added by serial dilution in triplicate wells. Finally 100 μl of the T cell suspension (10^6/ml) was added. After 48-hour incubation at 37° C. in 5% CO2 20 μl BrdU (100 μM solution) (Cell Proliferation Elisa, Boehringer-Mannheim Belgium) was added to each well. After a further overnight incubation the T cell proliferation was measured using a calorimetric immunoassay for qualification of cell proliferation based on measurements of the incorporation of BrdU during DNA synthesis. The optical density (OD) was measured by a Behring EL311 place reader at 450 nm (reference wavelength: […]). The percent suppression of proliferation by drugs was counted using the formula: […]

Highly purified T cells [3] = test: T cell proliferation induced by anti-CD28 mAb+PMA (BrdU); conditions: read-out: IC50 aCD28
Excerpt: as §1
T cells were purified by removing non-T cells. Briefly, monocytes were removed by cold agglutination. The resulting lymphoid cells were further purified by a cell enrichment immunocolumn [Cellect Human T (Biotex, Edmonton, Alberta, Canada)] by a process of negative selection. More than 95% of the B cells were removed with this procedure. After depletion, the resulting T cell preparation was highly purified explaining these cells could not be activated by PHA or rIL-2 alone at concentrations capable of stimulating RBMC prior to deletion.
as §2, §3

[4] = lowest concentration giving 50% suppression of the MLR
[5] = Homo sapiens, PBMC, lowest concentration giving 50% suppression of the MLR
[6] = Homo sapiens, T-cell, anti-CD3 mAb+PMA pathway
[7] = Homo sapiens, T-cell, anti-CD28 mAb+PMA pathway
[8] = Homo sapiens, PBMC, immunosuppressants for comparison
[9] = Homo sapiens, T-cell, immunosuppressants for comparison, anti-CD3 mAb+PMA
[10] = Homo sapiens, T-cell, immunosuppressants for comparison, anti-CD28 mAb+PMA

| Molecule | IC50 [1, 4] | IC50 (Highly purified T cells [2]; anti-CD3 mAb+PMA pathway) | IC50 (Highly purified T cells [3]; anti-CD28 mAb+PMA pathway) | other results |
| --- | --- | --- | --- | --- |
| C#CCn1cnc2c1c(=O)n(C)c(=O)n2CC#C [Compound 3, 1-methyl-3,7-dipropynylxanthine] | 150 µM | 150 µM | 100 µM |  |
| 1,7-diallyl-3-propyl-8-(4-chlorofenyl)xanthine [Compound 119] | 15 µM | 50 µM | 30 µM |  |
| 1,3-dipropyl-8-[4-dimethylamino(propyl(amino-(sulfonyl))))fenyl]xanthine [Compound 40] | 25 µM | 60 µM | 70 µM |  |
| CCCn1c(=O)c2[nH]c(-c3ccco3)nc2n(CCC)c1=S [Compound 61] | 100 µM | 170 µM | 110 µM |  |
| 1,3,7-tripropyl-8-(4-chlorofenyl)xanthine [Compound 118] | 15 µM | 15 µM | 20 µM |  |
| 1,3,7-tripropyl-8-fenylxanthine [Compound 113] | 20 µM | 110 µM | 90 µM |  |
| Cn1c(-c2ccc(C(F)(F)F)cc2)nc2c1c(=O)[nH]c(=O)n2C [Compound 83] | > 200 µM | > 200 µM | 150 µM |  |
| Cn1c(=O)c2[nH]c(C3CCCC3)nc2n(C)c1=S [Compound 64] | > 200 µM | > 200 µM | > 200 µM |  |
| Cn1c(=O)c2[nH]c(-c3ccc(-c4ccccc4)cc3)nc2n(C)c1=O [Compound 115] | 110 µM | > 200 µM | 160 µM |  |
| 1,3-dimethyl-7-allyl-8-[(4-trifluoromethyl)-fenyl]xanthine [Compound 82] | 25 µM | 80 µM | 80 µM |  |
| Cn1c(=O)c2[nH]c(-c3ccco3)nc2n(C)c1=O [Compound 58] | > 200 µM | 160 µM | 170 µM |  |
| Cn1c(=S)c2[nH]c(C3CCCC3)nc2n(C)c1=O [Compound 17] | 80 µM | 30 µM | 40 µM |  |
| Cn1cnc2c1c(=O)n(CCCC(=O)O)c(=O)n2C [Compound 23, 1-(3-carboxypropyl)-3,7-dimethylxanthine] |  |  |  | IC50 [1, 5]: > 200 µM; IC50 (Highly purified T cells [2]; [6]): > 200 µM; IC50 (Highly purified T cells [3]; [7]): > 200 µM |
| Cc1oncc1C(=O)Nc1ccc(C(F)(F)F)cc1 [Leflunomide, reference compound] |  |  |  | IC50 [1, 5]: 25 µM; IC50 (Highly purified T cells [2]; [6]): 15 µM; IC50 (Highly purified T cells [3]; [7]): 20 µM |
| CCCn1c(=O)c2[nH]c(-c3ccc(C(F)(F)F)cc3)nc2n(CCC)c1=O [Compound 48] | 180 µM | 160 µM | 150 µM |  |
| CCCn1c(=O)c2[nH]c(-c3ccsc3)nc2n(CCC)c1=O [Compound 15] |  | > 200 µM | 170 µM |  |
| C#CCn1c(=O)n(C)c(=O)c2c1ncn2C [Compound 67, 1,7-dimethyl-3-propynylxanthine] | > 200 µM | > 200 µM |  |  |

| Molecule | IC50 [1, 4] | IC50 (Highly purified T cells [2]; anti-CD3 mAb+PMA pathway) | IC50 (Highly purified T cells [3]; anti-CD28 mAb+PMA pathway) | other results |
| --- | --- | --- | --- | --- |
| CCCn1cnc2c1c(=O)n(CCCCC(C)O)c(=O)n2C (stereo not shown) [Compound 26] | 100 µM | 100 µM | 100 µM |  |
| Cn1c(=O)c2[nH]c(-c3ccco3)nc2n(C)c1=S [Compound 60] | > 200 µM |  | 190 µM |  |
| 1,3,7-trimethyl-8-(4-trifluoromethylfenyl)-xanthine [Compound 10] | 50 µM | 20 µM | 30 µM |  |
| Cn1cnc2c1c(=O)[nH]c(=O)n2CC(C)(C)C [Compound 70] | > 200 µM | 180 µM | 140 µM |  |
| CO[C@H]1C[C@@H]2CC[C@@H](C)[C@@](O)(O2)C(=O)C(=O)N2CCCC[C@H]2C(=O)O[C@H]([C@H](C)C[C@@H]2CC[C@@H](O)[C@H](OC)C2)CC(=O)[C@H](C)/C=C(\C)[C@@H](O)[C@@H](OC)C(=O)[C@H](C)C[C@H](C)/C=C/C=C/C=C/1C [Rapamycin, reference compound] |  |  |  | IC50 [1, 8]: 0.001 µM; IC50 (Highly purified T cells [2]; [9]): 0.001 µM; IC50 (Highly purified T cells [3]; [10]): 0.001 µM |
| CCCn1c(=O)c2[nH]c(-c3ccc(OCC(=O)O)cc3)nc2n(CCC)c1=S [Compound 28] | 120 µM | 150 µM | 75 µM |  |
| 1,7-diallyl-3-methyl-8-fenylxanthine [Compound 8] | 30 µM | 35 µM | 80 µM |  |
| CC(O)CCCCn1c(=O)c2c(ncn2C)n(C)c1=O (stereo not shown) [Compound 25] | > 200 µM | 140 µM | 160 µM |  |
| CCCn1c(=O)c2[nH]c(C3CCCC3)nc2n(CCC)c1=S [Compound 65] | > 200 µM | 135 µM | 75 µM |  |
| CC#Cn1c(=O)c2c(ncn2C)n(C)c1=O [Compound 1, 1-propynyl-3,7-dimethylxanthine] |  |  |  | IC50 [1, 5]: > 200 µM; IC50 (Highly purified T cells [2]; [6]): 150 µM; IC50 (Highly purified T cells [3]; [7]): > 200 µM |
| COc1c(C)c2c(c(O)c1C/C=C(\C)CCC(=O)O)C(=O)OC2 [Moferil, Mycophenolic acid, reference compound] |  |  |  | IC50 [1, 5]: < 0.5 µM; IC50 (Highly purified T cells [2]; [9]): 0.05 µM; IC50 (Highly purified T cells [3]; [10]): 0.05 µM |
| 1,7-diallyl-3-propyl-8-fenylxanthine [Compound 114] | 15 µM | 85 µM | 70 µM |  |
| 1,3-dipropyl-8-[4(dimethylamino(ethyl(amino-(sulfonyl))))fenyl]xanthine [Compound 9] | 25 µM | 40 µM | 50 µM |  |
| C=CCn1c(=O)c2c(nc(-c3ccc(-c4ccccc4)cc3)n2CC=C)n(CCC)c1=O [Compound 117, 1,7-diallyl-3-propyl-8-(p-bifenyl)xanthine] | 15 µM | 30 µM | 30 µM |  |
| CC(C)n1c(=O)n(C)c(=O)c2[nH]cnc21 [Compound 71] | 160 µM |  |  |  |
| C=CC[C@@H]1/C=C(\C)C[C@H](C)C[C@H](OC)[C@H]2O[C@@](O)(C(=O)C(=O)N3CCCC[C@H]3C(=O)O[C@H](/C(C)=C/[C@@H]3CC[C@@H](O)[C@H](OC)C3)[C@H](C)[C@@H](O)CC1=O)[C@H](C)C[C@@H]2OC [FK506, reference compound] |  |  |  | IC50 [1, 8]: 0.001 µM; IC50 (Highly purified T cells [2]; [9]): 0.001 µM; activity in the anti-CD3+PMA test (Highly purified T cells [2]; in words): active |
